Measurements taken from publication PMC8179002, “Inhibitors of thiol-mediated uptake” (Chemical Science, 2020).
Where two headings read alike, the source gives them in different places.

Tests used:
[1] = tested on: cellular uptake of 1 in HeLa Kyoto cells; experiment: cells; type: cell-based; conditions: HeLa; for MIC, inhibition of cellular uptake of 1 / IC50 / minimal effective concentration: removal, tinc 0.5 h with 1 (10 µM); for IC50: read-out: IC50, inhibition of cellular uptake of 1; for minimal effective concentration: read-out: MIC, inhibition of cellular uptake of 1
Method: (§1) With COCs 1 and 2 as cell-penetrating reporters, a fully automated, fluorescent microscopy image-based high-content high-throughput (HCHT)[19] inhibitor screening assay was developed. HeLa cells in multiwell plates are incubated with a reporter at constant and inhibitors at varying concentrations and incubation times. Hindered reporter uptake then causes decrease of fluorescence inside of cells (Fig. 3a). Automated data analysis[19] was established to extract average fluorescence intensity per cell and, at the same time, cell viability from propidium iodide negative nuclei count (Fig. 3 and S3–S6 ^†). Standard assay conditions consisted of pre-incubation of HeLa cells with inhibitors for different periods of time, followed by the removal of inhibitors and the addition of reporters, thus excluding possible interactions between the two in the extracellular environment. In alternative co-incubation conditions, inhibitors were not removed before the addition of reporters to allow for eventual interactions between the two.
4. High-Content High-Throughput (HCHT) Inhibitor Screening
4.1. General Procedure for HCHT Inhibitor Screening
4.1.1. Pre-Incubation of Inhibitors
HeLa Kyoto cells were seeded at 1.2 ×10^4 cells/well in FluoroBrite DMEM + 10% FBS on μ-Plate 96-well Black ibiTreat sterile and kept at 37 °C with 5% CO2 overnight. Next day, serial dilutions of the inhibitors in PBS (10x final concentration), reporter 1 or 2 (100 μM in PBS) and a solution of Hoechst 33342 (100 μg/mL) and PI (10 μg/mL) in PBS were prepared freshly in a 96-well V-bottom plate. Then, cells were washed with PBS ([…]) and the media was exchanged to FluoroBrite DMEM (4 x 150 μL/well) using a plate washer (Biotek EL406®), keeping always a final volume of 135 μL/well. The inhibitor solutions from the V-bottom plate were added to the cells (15 μL/well, 10x final concentration in PBS) using an electronic multichannel pipettes to reach a final volume of 150 μL/well. Cells were incubated for the time of interest (for details of each inhibitors, see Section 4.3 and 4.4) at 37 °C with 5%
CO2. After this, cells were washed again using the plate washer and reporter solution 1 or 2 from the V-bottom plate was added (15 μL/well) using an electronic multichannel pipettes to reach a final volume of 150 μL/well and a final concentration of 10 μM, except for the control wells, where only PBS was added (15 μL/well). After 30 min of incubation at 37 °C with 5% CO2, the plate was washed again using the plate washer. Then, the solution of Hoechst 33342 and PI from V-bottom plate was added (15 μL/well) using an electronic multichannel pipettes to reach a final volume of 150 μL/well. After 15 min of incubation at 37 °C with 5% CO2, the plate was washed one last time and the cells were kept in clean FluoroBrite DMEM. During imaging, samples were kept at 37 °C with 5% CO2 in the microscope.
4.1.2. Co-Incubation of Inhibitors and Reporters […]
serial dilutions of the inhibitors in PBS (10x final concentration), reporter 1 or 2 (110 μM in […]
freshly in a 96-well V-bottom plate. Then, cells were washed with the plate washer. The inhibitor solutions from the V-bottom plate were added to the cells (15 μL/well, 10x final concentration in PBS) using an electronic multichannel pipettes to reach a final volume of 150 μL/well. Cells were incubated for the time of interest (for details of each inhibitors, see Section 4.3 and 4.4) at 37 °C with 5% CO2. Reporter solution 1 or 2 from V-bottom plate was then added (15 μL/well) using an electronic multichannel pipettes to reach a final volume of 165 μL/well and a final concentration of 10 μM 30 min before the next washing process, except for the control wells, where only PBS was added (15 μL/well). The plate was washed again using the plate washer. The solution of Hoechst 33342 and PI from V-bottom plate was added (15 μL/well) using an electronic multichannel pipettes to reach a final volume of 150 μL/well. After […]

HeLa Kyoto cells [2] = experiment: Relative cell viability in HCHT screening (propidium iodide negative nuclei count); type: cell-based; conditions: HeLa, removal, tinc 0.5 h with 1 (10 µM), read-out: GI50, concentration causing 50% cell growth inhibition
Method: as §1
(§2) To be able to extract the fluorescent integrated intensity information (sum of the intensities of all the pixels included in the mask) from the green channel for live cell only, the image analysis pipeline contains several steps of cell filtering and selection:
(§3) 1) Firstly, PI is used to stain any remaining nuclei of dead cell. In the analysis pipeline, all the “dead” nuclei are detected based on their fluorescent intensity in the PI channel (Figure […]
(§4) Fig. S4 (A) PI positive nuclei mask (fluorescent intensity threshold of 1000). (B) Overlap image of dead nuclei mask and original all cell body mask. (C) Resulting cell mask after removing any cell marked by a dead nucleus, new mask is called “Live Cell”. Scale bar: 50 μm.
(§5) 2) Elimination of non-full cells from the border of the image is performed, to avoid inaccurate fluorescent integrated intensity quantification (fluorescent integrated intensity = sum of intensity of all the pixel of the object) (Figure S5).
(§6) (1 picture or pasted object on this page, not shown here)
(§7) 4.3. HCHT Inhibitor Screening with ETP as Reporter […]
(§8) Relative cell viability (RV) for each condition in the presence of inhibitors were calculated using the count value of living cells by dividing the count value of living cells with addition of reporter 1, Hoechst 33342 and PI, for each set of experiments. Duplicates were performed for each condition. The resulting dependence of the relative cell viability (RVrel) to the concentration of inhibitors (cinhibitor) was plotted and fitted with Equation (S2) to retrieve the concentration causing 50% cell growth inhibition (GI50) value and the Hill coefficient (n).
(§9) RVrel = 1 / (1 + (GI50 / cinhibitor)n) (S2)
(§10) Note: Reporter 1 were not toxic for 1 h at 10 μM.S2 Also in this study, the count value of living cells with addition of reporter 1, Hoechst 33342 and PI is always similar to that of living cells with only addition of Hoechst 33342 and PI.
as §8, with “with” for “in the presence of”, “2,” for “1,”
(§11) Note: Reporter 2 were not toxic for 24 h at 10 μM.S3 Also in this study, the count value of living cells with addition of reporter 2, Hoechst 33342 and PI is always similar to that of living cells with only addition of Hoechst 33342 and PI.
(§12) 4.4.1. Screening with Disulfides as Inhibitors
(§13) 4.4.1.1. Screening with ETP as Inhibitors
(§14) Fig. S35 Automatically analyzed HCHT data showing fluorescence intensity (filled symbols) and relative viability (empty symbols) of HeLa cells after pre-incubation with 3 for 1 h (blue […]

HeLa Kyoto cells [3] = conditions: cited from earlier work
thiol-mediated uptake = experiment: Inhibition of thiol-mediated uptake, reporter and protocol not stated; type: cell-based; conditions: preliminary results; note 34
[4] = Relative cell viability in HCHT screening (propidium iodide negative nuclei count); type: cell-based; conditions: human; for GI50: HeLa, removal, tinc 0.5 h with 1 (10 µM), read-out: GI50, concentration causing 50% cell growth inhibition
Method: as §1, §2, §3, §4, §5, §6, §7, §8, §9, §10
as §8, with “with” for “in the presence of”, “2,” for “1,”
as §11, §12, §13, §14

[5] = HeLa Kyoto, 1 h, tpre 1 h with inhibitor
[6] = HeLa Kyoto, 2 h, tpre 2 h with inhibitor
[7] = HeLa Kyoto, 4 h, tpre 4 h with inhibitor
[8] = HeLa Kyoto, tpre 1 h with inhibitor
[9] = HeLa Kyoto, tpre 2 h with inhibitor
[10] = HeLa Kyoto, tpre 4 h with inhibitor
[11] = HeLa Kyoto, 0.5 h, tpre 0.5 h with inhibitor
[12] = GI50, concentration causing 50% cell growth inhibition

Compound: [O-][S+]1CC(O)C(O)CS1 (centres unmarked) [compound 22]
- MIC, inhibition of cellular uptake of 1 ([1]; tpre 1 h with inhibitor): 800 µM
- IC50 ([1]; tpre 1 h with inhibitor): > 5000 µM
- MIC, inhibition of cellular uptake of 1 ([1]; tpre 2 h with inhibitor): 600 µM
- IC50 ([1]; tpre 2 h with inhibitor): > 2000 µM
- MIC, inhibition of cellular uptake of 1 ([1]; tpre 4 h with inhibitor): 300 µM
- IC50 ([1]; tpre 4 h with inhibitor): > 2000 µM
- GI50 (HeLa Kyoto cells [2]; tpre 1 h with inhibitor): 4400 ± 200 µM
- GI50 (HeLa Kyoto cells [2]; tpre 2 h with inhibitor): > 5000 µM
- GI50 (HeLa Kyoto cells [2]; tpre 4 h with inhibitor): > 2000 µM

Compound: CCN1C(=O)C2SSC1C(=O)N2CC(=O)NCCNC(=S)Nc1ccc(-c2c3ccc(=O)cc-3oc3cc(O)ccc23)c(C(=O)O)c1 (centres unmarked) [compound 1]
- Toxicity of reporter (HeLa Kyoto cells [3]; 1 h at 10 μM, ref S2): not toxic

Compound: O=c1c2ccccc2[se]n1-c1ccccc1 [ebselen]
- Inhibition of thiol-mediated uptake, in words (thiol-mediated uptake): inhibits

Compound: O=C(NCCNC(=S)Nc1ccc(-c2c3ccc(=O)cc-3oc3cc(O)ccc23)c(C(=O)O)c1)c1ccc2c(c1)SSSSS2 [compound 2]
- Toxicity of reporter (HeLa Kyoto cells [3]; 24 h at 10 μM, ref S3): not toxic

Compound: O=C(O)C1CS[S+]([O-])C1 (centres unmarked) [compound 23]
- minimal effective concentration [1, 5]: 1000 µM
- minimal effective concentration [1, 6]: 1000 µM
- minimal effective concentration [1, 7]: 900 µM
- IC50 [1, 8]: > 2000 µM
- IC50 [1, 9]: > 2000 µM
- IC50 [1, 10]: > 1000 µM
- GI50 ([4]; tpre 1 h with inhibitor): > 2000 µM
- GI50 ([4]; tpre 2 h with inhibitor): 1780 ± 120 µM
- GI50 ([4]; tpre 4 h with inhibitor): 1470 ± 70 µM

Compound: O=C(O)c1cc(SSc2ccc([N+](=O)[O-])c(C(=O)O)c2)ccc1[N+](=O)[O-] [compound 20, 5,5’-Dithiobis(2-nitrobenzoic acid), reference compound]
- Inhibition of uptake of reporter 1, in words [1]: minor inhibition up to around 2 mM, which disappeared again at higher concentrations
- minimal effective concentration [1, 11]: 200 µM
- minimal effective concentration [1, 5]: 500 µM
- GI50 at 0.5 h [4, 12]: > 10000 µM
- GI50 at 1 h [4, 12]: > 10000 µM

Compound: CS(=O)(=O)c1nnc(-c2ccccc2)o1 [compound 14]
- minimal effective concentration ([1]; HeLa Kyoto, 0.25 h, tpre 0.25 h with inhibitor): 40 µM
- IC50 [1, 11]: 204 ± 63 µM
- minimal effective concentration [1, 11]: 20 µM
- IC50 ([1]; HeLa Kyoto, tpre 0.25 h with inhibitor): 137 ± 28 µM
- GI50 ([4]; tpre 0.25 h with inhibitor): > 500 µM
- GI50 ([4]; tpre 0.5 h with inhibitor): 410 ± 99 µM

Compound: O=C(O)CCCCC1CCS[S+]1[O-] (centres unmarked) [compound 27]
- minimal effective concentration [1, 5]: > 2000 µM
- minimal effective concentration [1, 6]: > 2000 µM
- minimal effective concentration [1, 7]: > 2000 µM
- IC50 [1, 8]: > 2000 µM
- IC50 [1, 9]: > 2000 µM
- IC50 [1, 10]: > 2000 µM
- GI50 ([4]; tpre 1 h with inhibitor): > 5000 µM
- GI50 ([4]; tpre 2 h with inhibitor): > 5000 µM
- GI50 ([4]; tpre 4 h with inhibitor): 1800 ± 300 µM
